Measurements from the supplement of paper PMC10307832.

Key:
Test in all cases: relative viability (nuclei count vs DMSO), 5 days (fraction); higher = more cells survive
[1] = compound: CC1=CC=C(C=C1)C(=O)CN2C3=C(CCCC3)SC2=N [Pifithrin_alpha] + Cc1nc(Nc2ncc(C(=O)Nc3c(C)cccc3Cl)s2)cc(N2CCN(CCO)CC2)n1 [Dasatinib] (partner 0.075 µM)
Summary of the method: (§1)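 The day after seeding in 1536-well plates, lung cancer cell lines were treated by pin tool with a single drug, or with a fixed anchor-drug dose together with five library-drug doses (not always all listed) in √10 steps. After 5 days, a combined fix-and-stain solution (final 0.05% Triton X-100, 1% formaldehyde, 1 ug/ml Hoechst) was added. Nuclei counted on 4× images gave relative viability as treated counts over vehicle counts, reported as the median of duplicate plates.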

[2] = compound: CNC(=O)c1ccccc1Sc1ccc2c(/C=C/c3ccccn3)n[nH]c2c1 [Axitinib] + CS(=O)(=O)N1CCN(Cc2cc3nc(-c4cccc5[nH]ncc45)nc(N4CCOCC4)c3s2)CC1 [Pictilisib] (partner 1 µM)
Summary of the method: as §1

[3] = compound: Nc1nc(Nc2ccc3c(c2)CC[C@@H](N2CCCC2)CC3)nn1-c1cc2c(nn1)-c1ccccc1CCC2 [Bemcentinib] + CCNC(=O)c1noc(-c2cc(C(C)C)c(O)cc2O)c1-c1ccc(CN2CCOCC2)cc1 [Luminespib] (partner 0.01 µM)
Summary of the method: as §1

[4] = compound: Nc1nc(Nc2ccc3c(c2)CC[C@@H](N2CCCC2)CC3)nn1-c1cc2c(nn1)-c1ccccc1CCC2 [Bemcentinib] + CS(=O)(=O)CCNCc1ccc(-c2ccc3ncnc(Nc4ccc(OCc5cccc(F)c5)c(Cl)c4)c3c2)o1 [Lapatinib] (partner 2 µM)
Summary of the method: as §1

| Cell Line | relative viability ([1]; first compound 1 µM) | relative viability ([1]; first compound 3.162 µM) | relative viability ([1]; first compound 10 µM) | relative viability ([1]; first compound 31.62 µM) | relative viability ([1]; first compound 100 µM) | relative viability ([2]; first compound 0.005 µM) | relative viability ([2]; first compound 0.01581 µM) | relative viability ([2]; first compound 0.05 µM) | relative viability ([2]; first compound 0.1581 µM) | relative viability ([2]; first compound 0.5 µM) | relative viability ([3]; first compound 0.04 µM) | relative viability ([3]; first compound 0.1265 µM) | relative viability ([3]; first compound 0.4 µM) | relative viability ([3]; first compound 1.265 µM) | relative viability ([3]; first compound 4 µM) | relative viability ([4]; first compound 0.04 µM) | relative viability ([4]; first compound 0.1265 µM) | relative viability ([4]; first compound 0.4 µM) | relative viability ([4]; first compound 1.265 µM) | relative viability ([4]; first compound 4 µM) |
| --- | --- | --- | --- | --- | --- | --- | --- | --- | --- | --- | --- | --- | --- | --- | --- | --- | --- | --- | --- | --- |
| NCI-H1975 | 0.257 | 0.242 | 0.2 | 0.214 | 0.2 | 0.334 | 0.311 | 0.365 | 0.317 | 0.377 | 0.162 | 0.216 | 0.249 | 0.187 | 0.204 | 0.962 | 1.02 | 0.894 | 0.79 | 0.853 |
| NCI-H1651 | 0.37 | 0.506 | 0.425 | 0.322 | 0.326 | 0.631 | 0.503 | 0.665 | 0.576 | 0.567 | 0.967 | 0.757 | 1.05 | 0.79 | 0.977 | 0.836 | 0.979 | 1.1 | 0.815 | 0.822 |
| NCI-H661 | 0.967 | 0.842 | 0.801 | 0.62 | 0.76 | 0.387 | 0.422 | 0.339 | 0.46 | 0.375 | 0.87 | 0.961 | 0.895 | 0.963 | 0.987 | 0.484 | 0.431 | 0.491 | 0.567 | 0.469 |
| NCI-H522 | 0.972 | 0.887 | 0.779 | 0.757 | 0.816 |  |  |  |  |  | 0.95 | 1.15 | 1.16 | 1.21 | 1.06 |  |  |  |  |  |
| NCI-H1703 |  |  |  |  |  | 0.228 | 0.216 | 0.254 | 0.231 | 0.2 |  |  |  |  |  |  | 1.18 | 1.24 | 1.17 | 1.13 |
| Calu-6 |  |  |  |  |  | 0.861 | 0.946 | 1 | 0.942 | 1.17 |  |  |  |  |  | 1.02 | 1.25 | 1.34 | 1.13 | 1.11 |
| NCI-H441 | 0.556 | 0.574 | 0.498 |  | 0.613 | 0.456 | 0.563 | 0.413 | 0.571 | 0.542 | 0.354 | 0.485 | 0.303 | 0.469 | 0.321 |  |  |  |  |  |
| EBC-1 |  |  |  |  |  | 0.492 | 0.485 | 0.459 | 0.41 | 0.567 |  |  |  |  |  | 0.203 | 0.189 | 0.302 | 0.204 | 0.221 |
| SW 900 | 0.366 | 0.487 | 0.318 | 0.349 | 0.307 |  |  |  |  |  | 0.169 | 0.203 | 0.174 | 0.156 | 0.17 |  |  |  |  |  |
| NCI-H1299 |  |  |  |  |  | 0.765 | 0.997 | 0.75 | 0.856 | 1.1 |  |  |  |  |  | 0.991 | 0.995 | 0.962 | 0.938 | 0.978 |
| LCLC-103H | 0.518 | 0.474 | 0.498 | 0.43 | 0.425 | 0.644 | 0.512 | 0.664 | 0.569 | 0.587 | 1.06 | 1.15 | 0.94 | 1.11 | 0.899 |  |  |  |  |  |
| NCI-H1623 | 0.463 | 0.603 | 0.523 | 0.56 | 0.448 |  |  |  |  |  | 0.498 | 0.547 | 0.588 | 0.481 | 0.467 |  |  |  |  |  |
